From patent US12275720B2, “Small molecule inhibitors of galectin-3” (BRISTOL MYERS SQUIBB, priority 2020, dated 2025)

Legend:
[1] = target: His-tagged recombinant human Gal-3 (hGal-3) (Homo sapiens, UniProt P17931); assay: Gal 3 HTRF Assay; type: binding; settings: HTRF assay (default), 15 nM hGal-3, 15 nM B-ASF; read-out: hGal3 IC50 (HTRF)
Description: • ASSAY BUFFER Composition: 25 mM HEPES, 100 mM NaCl, 0.005% Tween 20, 0.05% BSA prepared in sterile water (all reagents from Sigma). Controls: • Positive Control: 100% DMSO (1 μL)+His-tagged hGal-3 (20 μL)+B-ASF (20 μL)+Anti-His Terbium Antibody (5 μL)+Strep d2 Antibody (5 μL). • Negative Control: 100% DMSO (1 μL)+His-tagged hGal-3(20 μL)+Anti His Terbium Antibody (5 μL)+Strep d2 Antibody (5 μL). Stocks Preparation:
PROTOCOL: The Gal-3 assays were performed in 384 white Opti plates in three replicates at room temperature with gentle shaking at 250-300 rpm From the original stocks, […] working stock concentrations of His-tagged recombinant human Gal-3 (hGal-3) and that of B-ASF were prepared. From the working stock, 20 μL of hGal-3 (15 nM) and 20 μL B-ASF (15 nM) were added to the plates. In Negative Control, only hGal-3 was added. A concentration range of 50× working stocks were prepared for the compounds in 100% DMSO. Aliquots of 1 μL of the compounds were added to the wells and pre-incubated with 20 μL hGal-3 per well for 30 minutes Then 20 μL B-ASF were added and incubated for another 1 hour. To detect the signal, 5 μL (final conc. of 1.0 nM) terbium labelled Anti-His antibody was added and incubated for 30 min followed by adding 5 μL (final conc. of 20 nM) Streptavidin d2 and incubation for another 1 hour. The assay signal was detected using HTRF screen protocol (Excitation wavelength=340 nm, emission wavelength=615 nm/665 nm) on Envision 2104 Multilabel Reader. Data analysed using Toolset and Curve Master. Results are reported in the experimental section (IC50 in μM). All IC50 reported were generated using the HTRF assay except when specifically indicated.

[2] = target: T1, hGalectin-3 (Homo sapiens, UniProt P17931); assay: Gal-3 ELISA Assay (hGalectin-3 neutralization binding assay); settings: ASF-coated plate, 15 nM hGalectin-3, read-out: hGal3 IC50 (ELISA)
T1 construct: made in house
T1 sequence (P17931 whole entry): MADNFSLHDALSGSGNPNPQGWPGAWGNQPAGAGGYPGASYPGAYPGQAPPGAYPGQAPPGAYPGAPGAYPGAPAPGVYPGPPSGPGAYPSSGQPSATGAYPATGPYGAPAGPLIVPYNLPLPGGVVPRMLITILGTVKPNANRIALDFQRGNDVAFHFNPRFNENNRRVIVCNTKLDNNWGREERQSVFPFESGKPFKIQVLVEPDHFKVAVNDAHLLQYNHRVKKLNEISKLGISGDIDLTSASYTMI

Chain of His-tagged recombinant human Gal-3 (hGal-3) (P17931 whole entry): as above

| Compound | IC50 [1] | IC50 [2] |
| --- | --- | --- |
| (2R,4R,5R,6R)-4-(4-(3-fluorophenyl)-1H-1,2,3-triazol-1-yl)-N-((3R,4S,5S)-5-(4-(3-fluorophenyl)-1H-1,2,3-triazol-1-yl)-4-hydroxypiperidin-3-yl)-5-hydroxy-6-(hydroxymethyl)-N-methyltetrahydro-2H-pyran-2-carboxamide [Example 17b] | 130 nM |  |
| (2R,3R,4S,5R,6R)-4-(4-(3-fluorophenyl)-1H-1,2,3-triazol-1-yl)-N-((1R,2S,3S)-3-(5-(3-fluorophenyl)-1H-1,2,3-triazol-1-yl)-2-hydroxycyclohexyl)-5-hydroxy-6-(hydroxymethyl)-3-methoxytetrahydro-2H-pyran-2-carboxamide [Example 6b] | 900 nM |  |
| (2R, 3R, 4S, 5R, 6R)-4-(4-(3-fluorophenyl)-1H-1,2,3-triazol-1-yl)-N-((1S,2R,3R)-3-(4-(3-fluorophenyl)-1H-1,2,3-triazol-1-yl)-2-hydroxycyclohexyl)-5-hydroxy-6-(hydroxymethyl)-3-methoxytetrahydro-2H-pyran-2-carboxamide [Example 1b] |  | 16000 nM |
| CO[C@@H]1[C@@H](n2cc(-c3cccc(F)c3)nn2)[C@@H](O)[C@@H](CO)O[C@H]1C(=O)N(C)[C@H]1COC[C@@H](n2cc(-c3cccc(F)c3)nn2)[C@@H]1O (single isomer, unassigned) [Example 21] | 30 nM |  |
| CO[C@@H]1[C@@H](n2cc(-c3cccc(F)c3)nn2)[C@@H](O)[C@@H](CO)O[C@H]1C(=O)N(C)[C@H]1CN(C)C[C@@H](n2cc(-c3cccc(F)c3)nn2)[C@@H]1O [Example 19, (2R,3R,4S,5R,6R)-4-(4-(3-fluorophenyl)-1H-1,2,3-triazol-1-yl)-N-((3S,4R,5R)-5-(4-(3-fluorophenyl)-1H-1,2,3-triazol-1-yl)-4-hydroxy-1-methylpiperidin-3-yl)-5-hydroxy-6-(hydroxymethyl)-3-methoxy-N-methyltetrahydro-2H-pyran-2-carboxamide] | 20 nM |  |
| (2R,3R,4S,5R,6R)-4-(4-(3-fluorophenyl)-1H-1,2,3-triazol-1-yl)-N-((1S,2R,3R)-3-(4-(3-fluorophenyl)-1H-1,2,3-triazol-1-yl)-2-hydroxycyclohexyl)-5-hydroxy-6-(hydroxymethyl)-3-methoxy-N-methyltetrahydro-2H-pyran-2-carboxamide [Example 10b] | 91 nM |  |
| (2R,3R,4S,5R,6R)-4-(4-(3-fluorophenyl)-1H-1,2,3-triazol-1-yl)-N-((3R,4S,5S)-5-(4-(3-fluorophenyl)-1H-1,2,3-triazol-1-yl)-4-hydroxytetrahydro-2H-pyran-3-yl)-5-hydroxy-6-(hydroxymethyl)-3-methoxytetrahydro-2H-pyran-2-carboxamide [Example 20b] | 90 nM |  |
| (2R,3R,4S,5R,6R)-4-(4-(3-fluorophenyl)-1H-1,2,3-triazol-1-yl)-N-((3R,4S,5S)-5-(4-(3-fluorophenyl)-1H-1,2,3-triazol-1-yl)-4-hydroxypiperidin-3-yl)-3,5-dihydroxy-6-(hydroxymethyl)-N-methyltetrahydro-2H-pyran-2-carboxamide [Example 18a] | 1800 nM |  |
| (2R,3R,4S,5R,6R)-4-(4-(3-fluorophenyl)-1H-1,2,3-triazol-1-yl)-N-((1R,2S,3S)-3-(5-(3-fluorophenyl)-1H-1,2,3-triazol-1-yl)-2-hydroxycyclohexyl)-5-hydroxy-6-(hydroxymethyl)-3-methoxytetrahydro-2H-pyran-2-carboxamide [Example 6a] | 27000 nM |  |
| (2R,3R,4S,5R,6R)-4-(4-(3-fluorophenyl)-1H-1,2,3-triazol-1-yl)-N-((3R,4S,5S)-5-(4-(3-fluorophenyl)-1H-1,2,3-triazol-1-yl)-4-hydroxytetrahydro-2H-pyran-3-yl)-5-hydroxy-6-(hydroxymethyl)-3-methoxytetrahydro-2H-pyran-2-carboxamide [Example 20a] | 36000 nM |  |
| (2R,3R,4S,5R,6R)-4-(4-(3-fluorophenyl)-1H-1,2,3-triazol-1-yl)-N-((1S,2R,3R)-3-(4-(3-fluorophenyl)-1H-1,2,3-triazol-1-yl)-2-hydroxycyclohexyl)-5-hydroxy-6-(hydroxymethyl)-3-methoxy-N-methyltetrahydro-2H-pyran-2-carboxamide [Example 10a] | 5500 nM |  |
| CO[C@@H]1[C@@H](n2cc(-c3cccc(F)c3)nn2)[C@@H](O)[C@@H](CO)O[C@H]1C(=O)N(C)[C@H]1COC[C@@H](n2ncc3cc(F)cnc32)[C@@H]1O [Example 22a, (2R,3R,4S,5R,6R)-N-((3S,4R,5R)-5-(5-fluoro-1H-pyrazolo[3,4-b]pyridin-1-yl)-4-hydroxytetrahydro-2H-pyran-3-yl)-4-(4-(3-fluorophenyl)-1H-1,2,3-triazol-1-yl)-5-hydroxy-6-(hydroxymethyl)-3-methoxy-N-methyltetrahydro-2H-pyran-2-carboxamide] | > 10000 nM |  |
| (2R,4R,5R,6R)-4-(4-(3-fluorophenyl)-1H-1,2,3-triazol-1-yl)-N-((3R,4S,5S)-5-(4-(3-fluorophenyl)-1H-1,2,3-triazol-1-yl)-4-hydroxypiperidin-3-yl)-5-hydroxy-6-(hydroxymethyl)-N-methyltetrahydro-2H-pyran-2-carboxamide [Example 17a] | 5200 nM |  |
| (2R,3R,4S,5R,6R)-4-(4-(3-fluorophenyl)-1H-1,2,3-triazol-1-yl)-N-((1S,2R,3R)-3-(3-(3-fluorophenyl)-1H-1,2,4-triazol-1-yl)-2-hydroxycyclohexyl)-5-hydroxy-6-(hydroxymethyl)-3-methoxytetrahydro-2H-pyran-2-carboxamide [Example 9a] | 500 nM |  |
| CO[C@@H]1[C@@H](n2cc(-c3cccc(F)c3)nn2)[C@@H](O)[C@@H](CO)O[C@H]1C(=O)N[C@@H]1CCC[C@H](n2cc3c(F)cccc3n2)[C@H]1O (single isomer, unassigned) [Example 8] | 570 nM |  |
| (2R,3R,4S,5R,6R)-4-(4-(3-fluorophenyl)-1H-1,2,3-triazol-1-yl)-N-((3R,4S,5S)-5-(4-(3-fluorophenyl)-1H-1,2,3-triazol-1-yl)-4-hydroxypiperidin-3-yl)-3,5-dihydroxy-6-(hydroxymethyl)-N-methyltetrahydro-2H-pyran-2-carboxamide [Example 18b] | 50 nM |  |
| (2R, 3R, 4S, 5R, 6R)-4-(4-(3-fluorophenyl)-1H-1,2,3-triazol-1-yl)-N-((1S,2R,3R)-3-(4-(3-fluorophenyl)-1H-1,2,3-triazol-1-yl)-2-hydroxycyclohexyl)-5-hydroxy-6-(hydroxymethyl)-3-methoxytetrahydro-2H-pyran-2-carboxamide [Example 1a] | 290 nM | 700 nM |
| (2R,3R,4S,5R,6R)-N-((1R,2S,3S)-3-(4-fluoro-1H-indazol-1-yl)-2-hydroxycyclohexyl)-4-(4-(3-fluorophenyl)-1H-1,2,3-triazol-1-yl)-5-hydroxy-6-(hydroxymethyl)-3-methoxytetrahydro-2H-pyran-2-carboxamide [Example 7b] | 23000 nM |  |
| (2R,3R,4S,5R,6R)-4-(4-(3-fluorophenyl)-1H-1,2,3-triazol-1-yl)-N-((3R,4S,5S)-5-(4-(3-fluorophenyl)-1H-1,2,3-triazol-1-yl)-4-hydroxypiperidin-3-yl)-5-hydroxy-6-(hydroxymethyl)-3-methoxy-N-methyltetrahydro-2H-pyran-2-carboxamide [Example 16b] | 44 nM |  |
| (2R,3R,4S,5R,6R)-4-(4-(3-fluorophenyl)-1H-1,2,3-triazol-1-yl)-N-((1S,2R,3R)-3-(3-(3-fluorophenyl)-1H-1,2,4-triazol-1-yl)-2-hydroxycyclohexyl)-5-hydroxy-6-(hydroxymethyl)-3-methoxytetrahydro-2H-pyran-2-carboxamide [Example 9b] | > 100000 nM |  |
| (2R,3R,4S,5R,6R)-N-((1R,2S,3S)-3-(4-fluoro-1H-indazol-1-yl)-2-hydroxycyclohexyl)-4-(4-(3-fluorophenyl)-1H-1,2,3-triazol-1-yl)-5-hydroxy-6-(hydroxymethyl)-3-methoxytetrahydro-2H-pyran-2-carboxamide [Example 7a] | 640 nM |  |
| (2R,3R,4S,5R,6R)-4-(4-(3-fluorophenyl)-1H-1,2,3-triazol-1-yl)-N-((3R,4S,5S)-5-(4-(3-fluorophenyl)-1H-1,2,3-triazol-1-yl)-4-hydroxypiperidin-3-yl)-5-hydroxy-6-(hydroxymethyl)-3-methoxy-N-methyltetrahydro-2H-pyran-2-carboxamide [Example 16a] | 3500 nM |  |
